Assay results as given in patent publication US7495104B2, “Quinoline or quinazoline derivatives inhibiting auto-phosphorylation of fibroblast growth factor receptors” (Kirin Beer Kabushiki Kaisha, priority 2001, dated 2009).
Counter-ions that a name gives are not always drawn.

Target: Bek (Homo sapiens, UniProt P21802)
Test: Inhibitory activity against Bek-autophosphorylation using ELISA method in OCUM-2MD3 cells
Assay type: cell-based
Details: 1 hr with compound, read-out: IC50 (concentration necessary for inhibiting 50% of Bek-phosphorylation)
Outline: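 OCUM-2MD3 human scirrhous gastric cancer cells in 0.1% FCS were exposed to compound for 1 hr at 37° C, then lysed. Phospho-tyrosine proteins were captured with anti-phosphotyrosine antibody, probed with anti-Bek antibody and peroxidase read-out (A450). Positive control (1000 nM) set 0%, untreated 100%; IC50 from multi-level dilutions.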

Sequence of Bek (P21802 431-767 limits assumed): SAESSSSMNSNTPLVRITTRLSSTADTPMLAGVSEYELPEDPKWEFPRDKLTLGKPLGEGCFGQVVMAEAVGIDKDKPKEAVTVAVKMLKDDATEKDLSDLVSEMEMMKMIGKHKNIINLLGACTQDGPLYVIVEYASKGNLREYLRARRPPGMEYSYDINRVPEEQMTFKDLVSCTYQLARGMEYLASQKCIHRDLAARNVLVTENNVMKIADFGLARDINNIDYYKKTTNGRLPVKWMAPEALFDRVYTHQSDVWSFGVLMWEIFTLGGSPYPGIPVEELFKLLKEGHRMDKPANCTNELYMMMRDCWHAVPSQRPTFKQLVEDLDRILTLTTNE

In the case of `COc1cc2nccc(Oc3ccc(NC(=O)NCCC(C)(C)C)cc3)c2cc1OCCCN1CCC(CO)CC1` [Compound 323, 1-(3,3-Dimethyl-butyl)-3-(4-{6-[3-(4-hydroxymethyl-piperidin-1-yl)-propoxy]-7-methoxy-quinolin-4-yloxy}-phenyl)-urea], the IC50 is reported as 0.373 µM.

With `COc1cc2c(Oc3ccc(NC(=O)NCCC(C)(C)C)c(Cl)c3)ccnc2cc1OCCCN1CCC(O)CC1` [Compound 268, 1-(2-Chloro-4-{7-[3-(4-hydroxy-piperidin-1-yl)-propoxy]-6-methoxy-quinolin-4-yloxy}-phenyl)-3-(3,3-dimethyl-butyl)-urea] the IC50 was 0.0157 µM.

In the case of `COc1cc2c(Oc3ccc(Nc4ccc(C(C)(C)C)cc4)cc3)ccnc2cc1OCCC1CCCN1C` (stereo not drawn) [Compound 27, (4-Tert-butylphenyl)-(4-{6-methoxy-7-[2-(1-methylpyrrolidin-2-yl)ethoxy]quinolin-4-yloxy}phenyl)amine], the IC50 is reported as 2.52 µM.

`COc1cc2c(Oc3ccc(NC(=O)NCCC(C)(C)C)c(Cl)c3)ccnc2cc1OCCN1CCCC1` [Compound 165, 1-{2-Chloro-4-[6-methoxy-7-(2-pyrrolidin-1-yl-ethoxy)-quinolin-4-yloxy]-phenyl}-3-(3,3-dimethyl-butyl)-urea] gave an IC50 of 0.0689 µM.

For `COc1cc2c(Oc3ccc(NC(=O)NCCC(C)(C)C)cc3)ccnc2cc1OCCN(CCO)C1CCCCC1` [Compound 362, 1-[4-(7-{2-[Cyclohexyl-(2-hydroxy-ethyl)-amino]-ethoxy}-6-methoxy-quinolin-4-yloxy)-phenyl]-3-(3,3-dimethyl-butyl)-urea], the IC50 was 0.0492 µM.

`COc1cc2nccc(Oc3ccc(Cc4ccc(C(C)(C)C)cc4)cc3)c2cc1OC` [Compound 32, 4-[4-(4-Tert-butylbenzyl)phenoxy]-6,7-dimethoxyquinoline] showed an IC50 of 0.693 µM.

Compound `COc1cc2nccc(Oc3ccc(Nc4ccc(OCc5ccccc5)cc4)cc3)c2cc1OC` [Compound 7, (4-Benzyloxyphenyl)-[4-(6,7-dimethoxyquinolin-4-yloxy)phenyl]-amine] has an IC50 of 1.8 µM.

Compound `COc1cc2c(Oc3ccc(Nc4ccc(C(C)(C)C)cc4)cc3)ccnc2cc1OCCN(C)CCO` [Compound 49, 2-[(2-{4-[4-(4-Tert-butyl-phenylamino)phenoxy]-6-methoxy-quinolin-7-yloxy}ethyl)methylamino]ethanol] has an IC50 of 0.0339 µM.

Work on `COc1cc2c(Oc3ccc(Nc4ccc(C(C)(C)C)cc4)cc3)ccnc2cc1OCCCN1CCN(C)CC1` [Compound 35, (4-Tert-butylphenyl)-(4-{6-methoxy-7-[3-(4-methylpiperazin-1-yl)propoxy]quinolin-4-yloxy}phenyl)amine] yielded an IC50 of 0.221 µM.

`COc1cc2nccc(Oc3ccc(NC(=O)NC(C)(C)CC(C)(C)C)c(Cl)c3)c2cc1OC` [Compound 144, 1-[2-Chloro-4-(6,7-dimethoxy-quinolin-4-yloxy)-phenyl]-3-(1,1,3,3-tetramethyl-butyl)-urea] gave an IC50 of 0.202 µM.

In the case of `COc1cc2c(Oc3ccc(NC(=O)NCCC(C)(C)C)c(Cl)c3)ccnc2cc1OCCN1CCN(C)CC1` [Compound 115, 1-(2-Chloro-4-{6-methoxy-7-[2-(4-methyl-piperazin-1-yl)-ethoxy]-quinolin-4-yloxy}-phenyl)-3-(3,3-dimethyl-butyl)-urea], the IC50 is reported as under 0.01 µM.

`COc1cc2nccc(Oc3ccc(NC(=O)NCCC(C)(C)C)cc3C)c2cc1OC` [Compound 137, 1-[4-(6,7-Dimethoxy-quinolin-4-yloxy)-3-methyl-phenyl]-3-(3,3-dimethyl-butyl)-urea] gave an IC50 of 0.0667 µM.

For `COc1cc2c(Oc3ccc(Nc4ccc(C(C)(C)C)cc4)cc3)ccnc2cc1OCC(O)CN1CCCCCC1` (stereo not drawn) [Compound 63, 1-Azepan-1-yl-3-{4-[4-(4-tert-butylphenylamino)phenoxy]-6-methoxyquinolin-7-yloxy}propan-2-ol], the IC50 was 0.247 µM.

`COc1cc2c(Oc3ccc(NC(=O)NCCC(C)(C)C)cc3)ccnc2cc1OCCN1CCC(CCO)CC1` [Compound 219, 1-(3,3-Dimethyl-butyl)-3-[4-(7-{2-[4-(2-hydroxy-ethyl)-piperidin-1-yl]-ethoxy}-6-methoxy-quinolin-4-yloxy)-phenyl]-urea] gave an IC50 of under 0.01 µM.

Compound `COc1cc2c(Oc3ccc(Nc4ccc(C(C)(C)C)cc4)c(F)c3)ccnc2cc1OCCCN1CCC(CCO)CC1` [Compound 306, 2-[1-(3-{4-[4-(4-Tert-butyl-phenylamino)-3-fluoro-phenoxy]-6-methoxy-quinolin-7-yloxy}-propyl)-piperidin-4-yl]-ethanol] has an IC50 of 0.286 µM.

With `COc1cc2nccc(Oc3ccc(NC(=O)NC4CCCC(C)(C)C4)c(Cl)c3)c2cc1OC` (stereo not drawn) [Compound 110, 1-[2-Chloro-4-(6,7-dimethoxy-quinolin-4-yloxy)-phenyl]-3-(3,3-dimethyl-cyclohexyl)-urea] the IC50 was under 0.01 µM.

`COc1cc2c(Oc3ccc(Nc4ccc(C(C)(C)C)cc4)cc3)ccnc2cc1OCCN1CCC(OC)CC1` [Compound 280, (4-Tert-butyl-phenyl)-(4-{6-methoxy-7-[2-(4-methoxy-piperidin-1-yl)-ethoxy]-quinolin-4-yloxy}-phenyl)-amine] was tested, and the IC50 was 0.278 µM.

`COc1cc2c(Oc3ccc(NC(=O)NCCC(C)(C)C)c(F)c3)ccnc2cc1OCCN1C(C)(C)CCCC1(C)C` [Compound 131, 1-(3,3-Dimethyl-butyl)-3-(2-fluoro-4-{6-methoxy-7-[2-(2,2,6,6-tetramethyl-piperidin-1-yl)-ethoxy]-quinolin-4-yloxy}-phenyl)-urea] was tested, and the IC50 was 0.161 µM.

With `COc1cc2c(Oc3ccc(NC(=O)NCCC(C)(C)C)cc3)ccnc2cc1OCCCCN1CCCCC1` [Compound 157, 1-(3,3-Dimethyl-butyl)-3-{4-[6-methoxy-7-(4-piperidin-1-yl-butoxy)-quinolin-4-yloxy]-phenyl}-urea hydrochloride] the IC50 was 0.0285 µM.

For `COCC1CCN(CCOc2cc3nccc(Oc4ccc(Nc5ccc(C(C)(C)C)cc5)cc4)c3cc2OC)CC1` [Compound 281, (4-Tert-butyl-phenyl)-(4-{6-methoxy-7-[2-(4-methoxymethyl-piperidin-1-yl)-ethoxy]-quinolin-4-yloxy}-phenyl)-amine], the IC50 was 0.244 µM.

Work on `COc1cc2c(Oc3ccc(NC(=O)NCCC(C)(C)C)c(Cl)c3)ccnc2cc1OCC(O)CN1CCOCC1` (stereo not drawn) [Compound 206, 1-{2-Chloro-4-[7-(2-hydroxy-3-morpholin-4-yl-propoxy)-6-methoxy-quinolin-4-yloxy]-phenyl}-3-(3,3-dimethyl-butyl)-urea] yielded an IC50 of 0.0185 µM.

`COc1cc2c(Oc3ccc(NC(=O)NCCC(C)(C)C)c(Cl)c3)ccnc2cc1OCCN1CCC(CO)CC1` [Compound 275, 1-(2-Chloro-4-{7-[2-(4-hydroxymethyl-piperidin-1-yl)-ethoxy]-6-methoxy-quinolin-4-yloxy}-phenyl)-3-(3,3-dimethyl-butyl)-urea] showed an IC50 of 0.0316 µM.

In the case of `COc1cc2c(Oc3ccc(NC(=O)NCCC(C)(C)C)cc3)ccnc2cc1OCCCN1CCC(CCO)CC1` [Compound 220, 1-(3,3-Dimethyl-butyl)-3-[4-(7-{3-[4-(2-hydroxy-ethyl)-piperidin-1-yl]-propoxy}-6-methoxy-quinolin-4-yloxy)-phenyl]-urea], the IC50 is reported as 0.012 µM.

With `COc1cc2c(Oc3ccc(NC(=O)NCCC(C)(C)C)c(Cl)c3)ccnc2cc1OCCCNCCO` [Compound 334, 1-(2-Chloro-4-{7-[3-(2-hydroxy-ethylamino)-propoxy]-6-methoxy-quinolin-4-yloxy}-phenyl)-3-(3,3-dimethyl-butyl)-urea] the IC50 was 0.0165 µM.
